Assay results from ChEMBL document CHEMBL5291721, “A preclinical secondary pharmacology resource illuminates target-adverse drug reaction associations of marketed drugs” (Nat Commun, 2023).

How the values were obtained:
[1] = molecular target: Gamma-aminobutyric acid receptor subunit alpha-1/alpha-2/beta-2/gamma-2 (Homo sapiens, UniProt P14867+P18507+P47869+P47870); assay type: functional, cell-based
D(1A) dopamine receptor = D(1A) dopamine receptor (Homo sapiens, UniProt P21728)
Androgen receptor = molecular target: T1, Androgen receptor (Rattus norvegicus, UniProt P15207)
T1 sequence (P15207 whole entry): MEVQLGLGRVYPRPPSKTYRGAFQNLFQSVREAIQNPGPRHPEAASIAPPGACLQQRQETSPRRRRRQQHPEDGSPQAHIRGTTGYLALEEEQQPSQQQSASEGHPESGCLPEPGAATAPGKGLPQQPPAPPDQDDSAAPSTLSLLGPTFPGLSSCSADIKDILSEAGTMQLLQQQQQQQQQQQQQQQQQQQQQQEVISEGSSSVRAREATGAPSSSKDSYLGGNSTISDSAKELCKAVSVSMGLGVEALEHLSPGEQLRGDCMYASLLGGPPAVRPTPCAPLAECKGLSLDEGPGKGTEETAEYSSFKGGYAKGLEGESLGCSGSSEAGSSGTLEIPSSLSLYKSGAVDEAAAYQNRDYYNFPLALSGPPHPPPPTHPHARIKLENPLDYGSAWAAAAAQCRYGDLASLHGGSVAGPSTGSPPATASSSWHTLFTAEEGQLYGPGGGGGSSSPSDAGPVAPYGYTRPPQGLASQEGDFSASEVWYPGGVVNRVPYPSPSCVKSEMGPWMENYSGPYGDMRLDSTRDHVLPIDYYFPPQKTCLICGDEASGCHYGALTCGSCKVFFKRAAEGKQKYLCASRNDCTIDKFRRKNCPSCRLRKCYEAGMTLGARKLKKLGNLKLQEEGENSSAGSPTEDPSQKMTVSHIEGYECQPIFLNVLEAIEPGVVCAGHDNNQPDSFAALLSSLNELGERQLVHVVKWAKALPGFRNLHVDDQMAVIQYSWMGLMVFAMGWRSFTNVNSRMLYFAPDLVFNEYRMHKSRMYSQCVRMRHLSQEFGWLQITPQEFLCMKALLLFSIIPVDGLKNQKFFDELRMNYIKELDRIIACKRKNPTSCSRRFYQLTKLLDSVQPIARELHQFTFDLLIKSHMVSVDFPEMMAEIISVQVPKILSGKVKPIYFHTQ

Substance-P receptor = Substance-P receptor (Homo sapiens, UniProt P25103)
Glucagon receptor = Glucagon receptor (Homo sapiens, UniProt P47871)
Sequence of Glucagon receptor (P47871 whole entry): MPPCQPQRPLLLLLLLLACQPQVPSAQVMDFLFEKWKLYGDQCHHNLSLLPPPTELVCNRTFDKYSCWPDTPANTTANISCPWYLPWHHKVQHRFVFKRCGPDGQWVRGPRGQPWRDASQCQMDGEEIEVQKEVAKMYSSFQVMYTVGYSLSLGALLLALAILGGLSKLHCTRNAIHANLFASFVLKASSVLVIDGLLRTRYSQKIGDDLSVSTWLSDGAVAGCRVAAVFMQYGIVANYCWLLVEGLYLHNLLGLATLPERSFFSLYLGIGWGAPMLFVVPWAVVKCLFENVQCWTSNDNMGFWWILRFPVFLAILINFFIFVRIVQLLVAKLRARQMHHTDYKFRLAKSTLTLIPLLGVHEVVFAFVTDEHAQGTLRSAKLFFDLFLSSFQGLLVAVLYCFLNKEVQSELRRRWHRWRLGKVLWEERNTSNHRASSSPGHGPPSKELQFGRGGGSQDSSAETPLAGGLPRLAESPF

[2] = molecular target: T2, Corticotropin-releasing factor receptor 1 (Homo sapiens, UniProt P34998)
T2 sequence (P34998 whole entry): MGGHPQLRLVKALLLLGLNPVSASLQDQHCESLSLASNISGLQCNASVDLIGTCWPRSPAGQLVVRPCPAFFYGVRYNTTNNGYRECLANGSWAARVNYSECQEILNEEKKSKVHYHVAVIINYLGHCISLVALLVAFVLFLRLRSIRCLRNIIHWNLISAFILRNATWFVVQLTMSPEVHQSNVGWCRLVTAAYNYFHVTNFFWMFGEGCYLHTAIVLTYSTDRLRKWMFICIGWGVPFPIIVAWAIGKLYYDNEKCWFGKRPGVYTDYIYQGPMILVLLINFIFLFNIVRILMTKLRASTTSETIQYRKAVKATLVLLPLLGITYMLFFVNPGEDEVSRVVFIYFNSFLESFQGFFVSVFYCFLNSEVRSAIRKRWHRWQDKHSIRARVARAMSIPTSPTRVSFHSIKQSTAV

[3] = molecular target: T3, Endothelin receptor type B (Homo sapiens, UniProt P24530)
T3 sequence (P24530 whole entry): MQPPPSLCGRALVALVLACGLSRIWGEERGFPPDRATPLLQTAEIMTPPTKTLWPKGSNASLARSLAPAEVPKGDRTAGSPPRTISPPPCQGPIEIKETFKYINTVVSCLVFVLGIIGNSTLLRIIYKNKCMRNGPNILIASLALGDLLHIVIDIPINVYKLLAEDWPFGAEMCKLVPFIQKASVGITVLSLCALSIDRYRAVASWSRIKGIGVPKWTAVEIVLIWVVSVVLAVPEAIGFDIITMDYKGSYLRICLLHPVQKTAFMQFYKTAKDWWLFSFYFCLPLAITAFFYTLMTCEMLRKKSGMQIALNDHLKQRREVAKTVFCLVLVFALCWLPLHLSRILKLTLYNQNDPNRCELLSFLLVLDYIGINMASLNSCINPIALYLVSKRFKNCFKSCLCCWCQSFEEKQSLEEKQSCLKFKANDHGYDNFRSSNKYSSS

[4] = molecular target: Gamma-aminobutyric acid type B receptor subunit 1 (Homo sapiens, UniProt Q9UBS5)
Sequence of Gamma-aminobutyric acid type B receptor subunit 1 (Q9UBS5 whole entry): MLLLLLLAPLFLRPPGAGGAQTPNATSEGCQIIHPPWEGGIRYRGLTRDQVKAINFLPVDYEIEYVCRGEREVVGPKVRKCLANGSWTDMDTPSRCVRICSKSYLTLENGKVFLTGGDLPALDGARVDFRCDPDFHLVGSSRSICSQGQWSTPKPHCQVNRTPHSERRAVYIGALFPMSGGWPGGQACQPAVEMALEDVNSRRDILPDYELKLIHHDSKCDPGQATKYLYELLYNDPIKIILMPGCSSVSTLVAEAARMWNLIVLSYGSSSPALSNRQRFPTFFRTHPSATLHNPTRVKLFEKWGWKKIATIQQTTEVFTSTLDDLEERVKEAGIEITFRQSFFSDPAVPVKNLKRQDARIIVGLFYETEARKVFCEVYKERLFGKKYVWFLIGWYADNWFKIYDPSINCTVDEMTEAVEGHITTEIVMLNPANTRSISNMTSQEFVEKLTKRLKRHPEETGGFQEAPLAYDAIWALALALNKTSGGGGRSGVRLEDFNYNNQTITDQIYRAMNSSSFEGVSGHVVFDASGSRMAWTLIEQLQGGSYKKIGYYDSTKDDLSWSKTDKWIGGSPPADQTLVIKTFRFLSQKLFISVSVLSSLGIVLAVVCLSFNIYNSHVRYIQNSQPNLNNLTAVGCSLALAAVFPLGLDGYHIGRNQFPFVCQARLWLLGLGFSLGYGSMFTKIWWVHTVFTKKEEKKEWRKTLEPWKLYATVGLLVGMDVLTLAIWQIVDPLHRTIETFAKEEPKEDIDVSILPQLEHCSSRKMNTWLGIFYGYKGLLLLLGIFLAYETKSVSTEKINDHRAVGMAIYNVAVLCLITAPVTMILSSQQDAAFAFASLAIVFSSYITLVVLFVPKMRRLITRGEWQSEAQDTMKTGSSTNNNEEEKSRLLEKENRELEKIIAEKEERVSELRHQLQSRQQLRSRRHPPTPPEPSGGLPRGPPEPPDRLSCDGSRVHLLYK

[5] = molecular target: 5-hydroxytryptamine receptor 6 (Homo sapiens, UniProt P50406)
Sequence of 5-hydroxytryptamine receptor 6 (P50406 whole entry): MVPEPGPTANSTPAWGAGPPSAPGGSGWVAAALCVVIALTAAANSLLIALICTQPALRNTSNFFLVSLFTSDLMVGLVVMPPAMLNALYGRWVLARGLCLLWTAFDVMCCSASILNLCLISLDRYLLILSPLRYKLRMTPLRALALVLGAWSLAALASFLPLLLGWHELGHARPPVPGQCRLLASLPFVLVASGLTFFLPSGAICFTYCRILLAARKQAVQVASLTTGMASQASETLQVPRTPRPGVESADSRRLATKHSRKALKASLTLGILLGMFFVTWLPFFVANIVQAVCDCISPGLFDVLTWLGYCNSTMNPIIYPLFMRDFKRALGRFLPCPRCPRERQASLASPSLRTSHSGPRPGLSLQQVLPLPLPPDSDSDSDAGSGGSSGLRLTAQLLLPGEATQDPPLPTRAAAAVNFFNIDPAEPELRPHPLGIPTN

Cannabinoid receptor 1 = Cannabinoid receptor 1 (Homo sapiens, UniProt P21554); assay type: functional
Sequence of Cannabinoid receptor 1 (P21554 whole entry): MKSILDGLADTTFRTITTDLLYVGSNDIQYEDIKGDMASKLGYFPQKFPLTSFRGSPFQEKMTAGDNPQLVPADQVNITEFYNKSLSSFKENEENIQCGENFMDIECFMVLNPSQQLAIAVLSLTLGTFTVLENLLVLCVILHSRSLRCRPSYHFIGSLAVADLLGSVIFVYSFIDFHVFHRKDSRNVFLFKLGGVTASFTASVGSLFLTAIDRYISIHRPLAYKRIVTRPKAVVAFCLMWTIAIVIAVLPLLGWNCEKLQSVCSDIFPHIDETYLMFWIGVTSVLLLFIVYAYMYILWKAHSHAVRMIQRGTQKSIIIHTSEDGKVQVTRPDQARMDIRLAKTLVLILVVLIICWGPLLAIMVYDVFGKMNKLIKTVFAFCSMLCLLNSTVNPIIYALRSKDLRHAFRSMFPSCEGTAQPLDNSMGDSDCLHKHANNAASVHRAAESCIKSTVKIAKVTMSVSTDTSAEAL

D(4) dopamine receptor = molecular target: T4, D(4) dopamine receptor (Homo sapiens, UniProt P21917)
T4 sequence (P21917 whole entry): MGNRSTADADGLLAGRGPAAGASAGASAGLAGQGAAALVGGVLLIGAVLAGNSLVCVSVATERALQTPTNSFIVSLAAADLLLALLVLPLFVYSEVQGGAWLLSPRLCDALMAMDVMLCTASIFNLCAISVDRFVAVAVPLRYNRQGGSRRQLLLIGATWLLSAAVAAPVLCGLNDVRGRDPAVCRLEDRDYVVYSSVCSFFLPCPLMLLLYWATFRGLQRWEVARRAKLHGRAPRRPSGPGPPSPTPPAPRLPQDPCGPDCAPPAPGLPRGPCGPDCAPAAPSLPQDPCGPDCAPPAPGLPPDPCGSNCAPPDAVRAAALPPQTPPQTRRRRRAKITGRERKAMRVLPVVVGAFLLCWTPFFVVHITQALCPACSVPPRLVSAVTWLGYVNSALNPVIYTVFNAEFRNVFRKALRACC
Also: assay procedure not described here.

Sequence of D(1A) dopamine receptor (P21728 whole entry): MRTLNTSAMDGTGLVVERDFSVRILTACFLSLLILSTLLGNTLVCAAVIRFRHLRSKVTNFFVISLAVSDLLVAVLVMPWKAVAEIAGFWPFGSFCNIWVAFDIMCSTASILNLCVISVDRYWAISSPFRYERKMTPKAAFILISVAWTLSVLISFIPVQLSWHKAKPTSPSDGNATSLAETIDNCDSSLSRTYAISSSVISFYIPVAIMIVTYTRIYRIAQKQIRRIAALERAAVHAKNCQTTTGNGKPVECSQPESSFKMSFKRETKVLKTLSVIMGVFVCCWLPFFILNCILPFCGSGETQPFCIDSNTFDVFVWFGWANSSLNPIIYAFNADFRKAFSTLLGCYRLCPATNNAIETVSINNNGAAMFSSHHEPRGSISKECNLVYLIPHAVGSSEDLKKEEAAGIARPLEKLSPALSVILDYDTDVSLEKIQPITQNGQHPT
Sequence of Gamma-aminobutyric acid receptor subunit alpha-1/alpha-2/beta-2/gamma-2 (P14867 whole entry): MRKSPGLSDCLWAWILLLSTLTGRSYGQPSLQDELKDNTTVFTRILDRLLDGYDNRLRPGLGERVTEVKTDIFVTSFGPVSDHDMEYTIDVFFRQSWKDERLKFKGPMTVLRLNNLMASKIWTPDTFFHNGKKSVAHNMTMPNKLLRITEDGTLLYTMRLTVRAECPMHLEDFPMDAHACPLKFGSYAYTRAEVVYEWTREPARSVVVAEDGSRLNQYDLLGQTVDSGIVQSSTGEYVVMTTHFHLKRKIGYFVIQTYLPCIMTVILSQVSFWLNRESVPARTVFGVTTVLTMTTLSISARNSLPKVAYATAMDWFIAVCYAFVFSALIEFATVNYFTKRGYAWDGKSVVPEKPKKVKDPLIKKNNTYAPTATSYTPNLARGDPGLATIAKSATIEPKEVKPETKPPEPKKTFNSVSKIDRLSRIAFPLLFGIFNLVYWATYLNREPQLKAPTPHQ
Sequence of Gamma-aminobutyric acid receptor subunit alpha-1/alpha-2/beta-2/gamma-2 (P47870 whole entry): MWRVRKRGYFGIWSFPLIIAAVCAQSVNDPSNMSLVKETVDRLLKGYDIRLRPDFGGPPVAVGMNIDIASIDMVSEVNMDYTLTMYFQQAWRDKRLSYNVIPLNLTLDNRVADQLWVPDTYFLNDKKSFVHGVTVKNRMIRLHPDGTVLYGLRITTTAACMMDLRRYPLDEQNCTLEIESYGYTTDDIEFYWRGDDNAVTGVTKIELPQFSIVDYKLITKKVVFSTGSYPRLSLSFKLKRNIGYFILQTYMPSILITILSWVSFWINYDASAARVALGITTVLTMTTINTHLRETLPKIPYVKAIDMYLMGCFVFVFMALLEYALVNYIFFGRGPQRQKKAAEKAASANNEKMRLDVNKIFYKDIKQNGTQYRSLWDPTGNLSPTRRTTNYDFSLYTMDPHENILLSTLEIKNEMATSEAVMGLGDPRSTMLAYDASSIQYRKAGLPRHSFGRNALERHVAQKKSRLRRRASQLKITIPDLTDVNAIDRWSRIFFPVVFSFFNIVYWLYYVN
Sequence of Gamma-aminobutyric acid receptor subunit alpha-1/alpha-2/beta-2/gamma-2 (P18507 whole entry): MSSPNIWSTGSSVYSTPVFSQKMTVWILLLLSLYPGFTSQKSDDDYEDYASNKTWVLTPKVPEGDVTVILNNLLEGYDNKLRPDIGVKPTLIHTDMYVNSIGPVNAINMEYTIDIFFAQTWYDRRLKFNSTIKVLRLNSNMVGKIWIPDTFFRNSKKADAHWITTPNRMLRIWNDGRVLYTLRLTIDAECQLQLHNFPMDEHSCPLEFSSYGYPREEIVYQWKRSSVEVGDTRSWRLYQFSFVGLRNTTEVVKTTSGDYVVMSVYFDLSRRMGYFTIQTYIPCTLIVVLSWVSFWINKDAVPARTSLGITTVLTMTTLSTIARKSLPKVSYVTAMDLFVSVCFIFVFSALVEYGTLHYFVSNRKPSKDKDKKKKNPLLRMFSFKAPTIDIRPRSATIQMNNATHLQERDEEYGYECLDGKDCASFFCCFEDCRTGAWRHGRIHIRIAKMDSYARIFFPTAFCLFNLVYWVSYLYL
Sequence of Gamma-aminobutyric acid receptor subunit alpha-1/alpha-2/beta-2/gamma-2 (P47869 whole entry): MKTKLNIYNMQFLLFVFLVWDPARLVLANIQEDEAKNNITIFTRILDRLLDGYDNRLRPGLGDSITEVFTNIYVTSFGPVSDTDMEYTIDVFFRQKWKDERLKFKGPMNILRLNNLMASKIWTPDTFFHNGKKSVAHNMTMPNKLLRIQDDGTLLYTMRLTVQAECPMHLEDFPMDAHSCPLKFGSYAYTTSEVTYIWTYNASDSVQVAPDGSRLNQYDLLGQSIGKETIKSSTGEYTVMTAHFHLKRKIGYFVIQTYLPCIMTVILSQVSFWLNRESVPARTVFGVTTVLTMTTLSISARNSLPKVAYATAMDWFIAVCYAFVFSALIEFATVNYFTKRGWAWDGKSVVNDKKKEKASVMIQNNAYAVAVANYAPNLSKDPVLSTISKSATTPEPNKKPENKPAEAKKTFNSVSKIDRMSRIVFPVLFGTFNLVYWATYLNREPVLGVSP

## Nc1nc2c(c(=O)[nH]1)N(C=O)C(CNc1ccc(C(=O)N[C@@H](CCC(=O)O)C(=O)O)cc1)CN2 (stereo partly drawn) [LEUCOVORIN]
[1]
  AC50: > 30 µM

## CCCC[C@H](C)C[C@H](O)/C=C/[C@H]1[C@H](O)CC(=O)[C@@H]1CCCC/C=C/C(=O)O [LIMAPROST]
[1]
  AC50: > 30 µM

## CC#CCn1c(N2CCC[C@@H](N)C2)nc2c1c(=O)n(Cc1nc(C)c3ccccc3n1)c(=O)n2C [LINAGLIPTIN]
D(1A) dopamine receptor
  AC50: > 10 µM
Androgen receptor
  AC50: > 30 µM

## O=C1CN=C(c2ccccc2)c2cc(Cl)ccc2N1 [NORDAZEPAM]
Substance-P receptor
  AC50: > 10 µM
Glucagon receptor
  AC50: > 30 µM
[2]
  AC50: > 30 µM
[3]
  AC50: > 30 µM
[4]
  AC50: > 10 µM
[5]
  AC50: > 10 µM
D(1A) dopamine receptor
  AC50: > 10 µM
Cannabinoid receptor 1
  AC50: 0.0006 µM
D(4) dopamine receptor
  AC50: > 10 µM

## CC(CCc1ccccc1)NC(C)C(O)c1ccc(O)cc1 (stereo not drawn) [NYLIDRIN]
Substance-P receptor
  AC50: > 10 µM
Glucagon receptor
  AC50: > 30 µM
[2]
  AC50: > 30 µM
[3]
  AC50: > 30 µM
[4]
  AC50: > 10 µM
[5]
  AC50: > 10 µM
D(1A) dopamine receptor
  AC50: > 10 µM
Cannabinoid receptor 1
  AC50: > 10 µM
D(4) dopamine receptor
  AC50: > 10 µM

## O=C1Nc2ccc(Cl)cc2C(c2ccccc2)=NC1O (stereo not drawn) [OXAZEPAM]
Substance-P receptor
  AC50: > 10 µM
Glucagon receptor
  AC50: > 30 µM
[2]
  AC50: > 30 µM
[3]
  AC50: > 30 µM
[4]
  AC50: > 10 µM
[5]
  AC50: > 10 µM
D(1A) dopamine receptor
  AC50: > 10 µM
Cannabinoid receptor 1
  AC50: > 10 µM
D(4) dopamine receptor
  AC50: > 10 µM

## CCn1cc(C(=O)O)c(=O)c2cc(F)c(N3CCN(C)CC3)cc21 [PEFLOXACIN]
[1]
  AC50: > 30 µM

## CC1(C)C(C=C(Cl)Cl)C1C(=O)OCc1cccc(Oc2ccccc2)c1 (stereo not drawn) [PERMETHRIN]
Androgen receptor
  AC50: > 30 µM

## Cc1ccc(=O)n(-c2ccccc2)c1 [PIRFENIDONE]
[1]
  AC50: > 30 µM

## C[n+]1ccccc1/C=N/O [PRALIDOXIME]
[1]
  AC50: > 30 µM

## CCCNC(C)C(=O)Nc1ccccc1C (stereo not drawn) [PRILOCAINE]
[1]
  AC50: > 30 µM

## NC(=O)CCC/N=C(\c1ccc(Cl)cc1)c1cc(F)ccc1O [PROGABIDE]
Androgen receptor
  AC50: > 10 µM

## Cc1ccc2c(-c3ccccc3)nc(=O)n(C(C)C)c2c1 [PROQUAZONE]
[1]
  AC50: > 30 µM

## CN1CCN(c2c(F)cc3c(=O)c(C(=O)O)cn4c3c2SCC4)CC1 [RUFLOXACIN]
[1]
  AC50: > 30 µM

## CC(C)CC(N(C)C)C1(c2ccc(Cl)cc2)CCC1 (stereo not drawn) [SIBUTRAMINE]
Substance-P receptor
  AC50: > 10 µM
Glucagon receptor
  AC50: > 30 µM
[2]
  AC50: > 30 µM
[3]
  AC50: > 30 µM
[4]
  AC50: > 10 µM
D(1A) dopamine receptor
  AC50: > 10 µM
D(4) dopamine receptor
  AC50: > 10 µM

## [H]/N=C(/N)N[C@H]1[C@H](O)[C@@H](O)[C@H](O[C@@H]2O[C@@H](C)[C@](O)(C=O)[C@H]2O[C@@H]2O[C@@H](CO)[C@H](O)[C@@H](O)[C@@H]2NC)[C@@H](N/C(N)=N\[H])[C@@H]1O [STREPTOMYCIN]
Substance-P receptor
  AC50: > 10 µM
Glucagon receptor
  AC50: > 30 µM
[2]
  AC50: > 30 µM
[3]
  AC50: > 30 µM
[5]
  AC50: > 10 µM
D(1A) dopamine receptor
  AC50: > 10 µM
Cannabinoid receptor 1
  AC50: > 10 µM
D(4) dopamine receptor
  AC50: > 10 µM

## CN1c2ccccc2C(NCCCCCCC(=O)O)c2ccc(Cl)cc2S1(=O)=O (stereo not drawn) [TIANEPTINE]
[1]
  AC50: > 30 µM

## COc1cc2c(Nc3ccc(Br)cc3F)ncnc2cc1OCC1CCN(C)CC1 [VANDETANIB]
[1]
  AC50: > 30 µM

## N#C[C@@H]1CCCN1C(=O)CNC12CC3CC(CC(O)(C3)C1)C2 [VILDAGLIPTIN]
Substance-P receptor
  AC50: > 10 µM
[4]
  AC50: > 10 µM
[5]
  AC50: > 10 µM
D(1A) dopamine receptor
  AC50: > 10 µM
Cannabinoid receptor 1
  AC50: > 10 µM
D(4) dopamine receptor
  AC50: > 10 µM
Androgen receptor
  AC50: > 30 µM
